This assay deals with Protein kinase C alpha type (Homo sapiens, UniProt P17252). The experiment in a line: Displacement of [H-20]phorbol12,13-dibutyrate (PDBU) from Protein kinase C alpha.

SMILES strings stand for the structures.

For orientation: Ki means the dissociation constant of the complex between target and ligand, obtained from inhibition or displacement. For the compound `CCCCCCCCCCCCC/C=C1\CC(CO)(COC(C)=O)OC1=O` (configuration not stated), the Ki was found to be 78 nM.

Compound `CCCCCCCCCCCCC/C=C1/CC(CO)(COC(C)=O)OC1=O` (configuration not stated) gave a Ki of 34 nM.

These data come from ChEMBL document CHEMBL1129285, “Conformationally constrained analogues of diacylglycerol. 10. Ultrapotent protein kinase C ligands based on a racemic 5-disubstituted tetrahydro-2-furanone template” (J Med Chem, 1996).
